{
  "source": "ChEMBL document CHEMBL1201862",
  "about": "“PubChem BioAssay data set” (2004)",
  "assay_in_all_cases": "NCI tumour cell line growth inhibition, 48 h",
  "key": {"786-0": {"test_system": "786-0"}, "A498": {"test_system": "A498"}, "A549": {"test_system": "A549"}, "ACHN": {"test_system": "ACHN"}, "BT-549": {"test_system": "BT-549"}, "CAKI-1": {"test_system": "CAKI-1"}, "CCRF-CEM": {"test_system": "CCRF-CEM"}, "COLO 205": {"test_system": "COLO 205"}, "DU-145": {"test_system": "DU-145"}, "EKVX": {"test_system": "EKVX"}, "HCC 2998": {"test_system": "HCC 2998"}, "HCT-116": {"test_system": "HCT-116"}, "HCT-15": {"test_system": "HCT-15"}, "HL-60": {"test_system": "HL-60"}, "HOP-62": {"test_system": "HOP-62"}, "HOP-92": {"test_system": "HOP-92"}, "HT-29": {"test_system": "HT-29"}, "IGROV-1": {"test_system": "IGROV-1"}, "K562": {"test_system": "K562"}, "KM12": {"test_system": "KM12"}, "LOX IMVI": {"test_system": "LOX IMVI"}, "M14": {"test_system": "M14"}, "MCF7": {"test_system": "MCF7"}, "MDA-MB-231": {"test_system": "MDA-MB-231"}, "MDA-MB-435": {"test_system": "MDA-MB-435"}, "MDA-N": {"test_system": "MDA-N"}, "MOLT-4": {"test_system": "MOLT-4"}, "Malme-3M": {"test_system": "Malme-3M"}, "NCI-H226": {"test_system": "NCI-H226"}, "NCI-H23": {"test_system": "NCI-H23"}, "NCI-H522": {"test_system": "NCI-H522"}, "NCI/ADR-RES": {"test_system": "NCI/ADR-RES"}, "OVCAR-3": {"test_system": "OVCAR-3"}, "OVCAR-4": {"test_system": "OVCAR-4"}, "OVCAR-5": {"test_system": "OVCAR-5"}, "OVCAR-8": {"test_system": "OVCAR-8"}, "PC-3": {"test_system": "PC-3"}, "RPMI-8226": {"test_system": "RPMI-8226"}, "RXF 393": {"test_system": "RXF 393"}, "SF-268": {"test_system": "SF-268"}, "SF-295": {"test_system": "SF-295"}, "SF-539": {"test_system": "SF-539"}, "SK-MEL-28": {"test_system": "SK-MEL-28"}, "SK-MEL-2": {"test_system": "SK-MEL-2"}, "SK-MEL-5": {"test_system": "SK-MEL-5"}, "SK-OV-3": {"test_system": "SK-OV-3"}, "SN12C": {"test_system": "SN12C"}, "SNB-19": {"test_system": "SNB-19"}, "SR": {"test_system": "SR"}, "SW-620": {"test_system": "SW-620"}, "T47D": {"test_system": "T47D"}, "TK-10": {"test_system": "TK-10"}, "U-251": {"test_system": "U-251"}, "UACC-257": {"test_system": "UACC-257"}, "UACC-62": {"test_system": "UACC-62"}, "UO-31": {"test_system": "UO-31"}},
  "note": "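Interpolation was linear, between the two tested concentrations surrounding the appropriate level; five concentrations were tested over 48 hours in 96-well plates. The concentration for 50% growth inhibition is given as GI50.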 Activity calls are given as the source filed them. No stated cut-off is given here; in the data, active = GI50 up to about 1.1 µM and inactive = higher.",
  "data": [
    {"compound": "CCOC(=O)c1sc2nc(SC)nc(Nc3ccc4c(c3)OCCCO4)c2c1N", "values": [
      {"measurement": "GI50", "setting": "786-0", "value": "19.3 µM (inactive)"},
      {"measurement": "GI50", "setting": "A498", "value": "26.7 µM (inactive)"},
      {"measurement": "GI50", "setting": "A549", "value": "8.47 µM (inactive)"},
      {"measurement": "GI50", "setting": "ACHN", "value": "26.9 µM (inactive)"},
      {"measurement": "GI50", "setting": "BT-549", "value": "17.5 µM (inactive)"},
      {"measurement": "GI50", "setting": "CAKI-1", "value": "> 100 µM (inactive)"},
      {"measurement": "GI50", "setting": "CCRF-CEM", "value": "4.66 µM (inactive)"},
      {"measurement": "GI50", "setting": "COLO 205", "value": "41.5 µM (inactive)"},
      {"measurement": "GI50", "setting": "DU-145", "value": "31.8 µM (inactive)"},
      {"measurement": "GI50", "setting": "EKVX", "value": "10.6 µM (inactive)"},
      {"measurement": "GI50", "setting": "HCC 2998", "value": "25.2 µM (inactive)"},
      {"measurement": "GI50", "setting": "HCT-116", "value": "67.1 µM (inactive)"},
      {"measurement": "GI50", "setting": "HCT-15", "value": 10.9, "unit": "µM"},
      {"measurement": "GI50", "setting": "HL-60", "value": "> 100 µM (inactive)"},
      {"measurement": "GI50", "setting": "HOP-62", "value": "20.1 µM (inactive)"},
      {"measurement": "GI50", "setting": "HOP-92", "value": "61.1 µM (inactive)"},
      {"measurement": "GI50", "setting": "HT-29", "value": "32.8 µM (inactive)"},
      {"measurement": "GI50", "setting": "IGROV-1", "value": "> 100 µM (inactive)"},
      {"measurement": "GI50", "setting": "K562", "value": "9.04 µM (inactive)"},
      {"measurement": "GI50", "setting": "KM12", "value": "24.2 µM (inactive)"},
      {"measurement": "GI50", "setting": "LOX IMVI", "value": "34.8 µM (inactive)"},
      {"measurement": "GI50", "setting": "M14", "value": "17.3 µM (inactive)"},
      {"measurement": "GI50", "setting": "MCF7", "value": "7.71 µM (inactive)"},
      {"measurement": "GI50", "setting": "MDA-MB-231", "value": "33 µM (inactive)"},
      {"measurement": "GI50", "setting": "MDA-MB-435", "value": "11.1 µM (inactive)"},
      {"measurement": "GI50", "setting": "MDA-N", "value": "20.5 µM (inactive)"},
      {"measurement": "GI50", "setting": "MOLT-4", "value": "2.55 µM (inactive)"},
      {"measurement": "GI50", "setting": "Malme-3M", "value": "16.7 µM (inactive)"},
      {"measurement": "GI50", "setting": "NCI-H226", "value": "42.2 µM (inactive)"},
      {"measurement": "GI50", "setting": "NCI-H23", "value": "5.92 µM (inactive)"},
      {"measurement": "GI50", "setting": "NCI-H522", "value": "3.3 µM (inactive)"},
      {"measurement": "GI50", "setting": "NCI/ADR-RES", "value": "8.93 µM (inactive)"},
      {"measurement": "GI50", "setting": "OVCAR-3", "value": "16.5 µM (inactive)"},
      {"measurement": "GI50", "setting": "OVCAR-4", "value": "5.47 µM (inactive)"},
      {"measurement": "GI50", "setting": "OVCAR-5", "value": "> 100 µM (inactive)"},
      {"measurement": "GI50", "setting": "OVCAR-8", "value": "11.4 µM (inactive)"},
      {"measurement": "GI50", "setting": "PC-3", "value": "20 µM (inactive)"},
      {"measurement": "GI50", "setting": "RPMI-8226", "value": "4.25 µM (inactive)"},
      {"measurement": "GI50", "setting": "RXF 393", "value": "11.8 µM (inactive)"},
      {"measurement": "GI50", "setting": "SF-268", "value": "20.8 µM (inactive)"},
      {"measurement": "GI50", "setting": "SF-295", "value": "8.95 µM (inactive)"},
      {"measurement": "GI50", "setting": "SF-539", "value": "14.3 µM (inactive)"},
      {"measurement": "GI50", "setting": "SK-MEL-28", "value": "> 100 µM (inactive)"},
      {"measurement": "GI50", "setting": "SK-MEL-2", "value": "62.5 µM (inactive)"},
      {"measurement": "GI50", "setting": "SK-MEL-5", "value": "3.29 µM (inactive)"},
      {"measurement": "GI50", "setting": "SK-OV-3", "value": "55.6 µM (inactive)"},
      {"measurement": "GI50", "setting": "SN12C", "value": "> 100 µM (inactive)"},
      {"measurement": "GI50", "setting": "SNB-19", "value": "> 100 µM (inactive)"},
      {"measurement": "GI50", "setting": "SR", "value": "16.7 µM (inactive)"},
      {"measurement": "GI50", "setting": "SW-620", "value": "17.5 µM (inactive)"},
      {"measurement": "GI50", "setting": "T47D", "value": "2.14 µM (inactive)"},
      {"measurement": "GI50", "setting": "TK-10", "value": "40.6 µM (inactive)"},
      {"measurement": "GI50", "setting": "U-251", "value": "46.5 µM (inactive)"},
      {"measurement": "GI50", "setting": "UACC-257", "value": "7.82 µM (inactive)"},
      {"measurement": "GI50", "setting": "UACC-62", "value": "9.84 µM (inactive)"},
      {"measurement": "GI50", "setting": "UO-31", "value": "85.1 µM (inactive)"}
    ]}
  ]
}
